Test results as given in patent US6780839B2, “Use of secretin-receptor ligands in treatment of cystic fibrosis (CF) and chronic obstructive pulmonary disease (COPD)” (Pharmagene Laboratories Ltd., priority 2000, dated 2004).

How the values were obtained:
[1] = tested on: human tertiary bronchus from non-CF donors; test: Short circuit current across the bronchial wall, modified Ussing chamber; format: cell-based
Excerpt: In brief, non-branching regions of the human tertiary bronchus from non-CF donors were dissected, cut longitudinally and mounted in between the two compartments of a modified Ussing chamber to measure the short circuit current across the bronchial wall. Both luminal (airway) and basolateral membranes were bathed in oxygenated Krebs extracellular solution and the tissue voltage clamped to zero to allow changes in short circuit current in response to secretin to be measured. Amiloride at a concentration of 10 μM was initially added to the luminal membrane (FIG. 5, point a)(as described by those in the art) to partially block the predominant sodium ion current and unmask underlying ionic currents. On attainment of a stable base line, 3 μM human secretin (supplied by Sigma, catalogue number S714) was added to the luminal membrane (FIG. 5, point b).

rat cholangiocytes = details: by translocation of AQP-1 water channels; cited from earlier work
[2] = tested on: human CF tertiary bronchus; test: Short circuit current in CF bronchus, modified Ussing chamber; format: cell-based
Method: The experiment described above was repeated using human CF tertiary bronchus, using 1 μM secretin.

[3] = tested on: primary human tertiary bronchial epithelial cells derived from non-CF donors; test: Short circuit current in confluent tertiary bronchial epithelial cell monolayers, modified Ussing chamber; format: cell-based
Excerpt: Functional effects of the secretin receptor were probed in epithelial cells derived from the human tertiary bronchus. In brief, tertiary bronchial epithelial were isolated by overnight protease digestion and then cultured until confluency on Snapwell (Costar) permeable supports. The supports were mounted in a modified Ussing chamber, and both luminal and basolateral membranes were bathed in oxygenated Krebs extracellular solution. The cells were voltage clamped to zero to allow changes in short circuit current Isc in response to secretin to be measured. As previously described, 10 μM amiloride was initially added to the luminal membrane (FIG. 6, point a)followed by the addition of 100 μM secretin to the luminal membrane (FIG. 6, point b). A time matched, amiloride-treated control is denoted by the thin trace.

[4] = tested on: primary human tertiary bronchial epithelial cells; test: Cl- efflux by MQAE fluorescence; format: cell-based; details: FIG. 8
Method: Molecular Probes). In brief, primary human, tertiary bronchial epithelial cells were isolated as previously described and cultured in a 96 well plate. On reaching confluency, cells were loaded overnight with 4 mM MQAE. Cells were washed in a chloride containing HEPES buffer, before passive Cl^− efflux was initiated by the addition of a Cl^− free buffer. […] 100 nM Secretin mediated Cl^− efflux was inhibited by the non-selective Cl^− blocker NPPB (open circles).

rats = details: injected intracerebroventricularly; cited from earlier work
[5] = 10 μM ATP or UTP on apical membrane, FIG. 5 point c

Nc1ncnc2c1ncn2[C@@H]1O[C@H](COP(=O)(O)OP(=O)(O)OP(=O)(O)O)[C@@H](O)[C@H]1O [ATP]
ionic movement (short circuit current) [1, 5]: stimulate a similar ionic movement of similar magnitude

secretin
concentration dependent increase in osmotic H2O permeability (rat cholangiocytes): 60%
ionic movement (short circuit current) ([2]; 1 μM secretin after amiloride, FIG. 7 point b): stimulates ionic movement of a negatively charged ion
ionic movement (short circuit current Isc) ([3]; 100 μM secretin on luminal membrane after 10 μM amiloride, FIG. 6): stimulated ionic movement in a manner consistent with the movement of a negatively charged ion
Cl- efflux (changes in MQAE fluorescence) ([4]; nanomolar concentrations of secretin (12.5 nM, 100 nM), Cl- free buffer): stimulated Cl^− efflux
defecation (rats): significantly increased defecation
novel-object approaches (rats): decreased novel-object approaches
stereotypic behaviour (rats): no significant effects on stereotypic behaviour
ionic movement (short circuit current) ([1]; 3 μM human secretin on luminal membrane after 10 μM amiloride, FIG. 5): stimulate ionic movement in a manner consistent with the movement of a negatively charged ion

COc1ccc(Cl)cc1C(=O)NCCc1ccc(S(=O)(=O)NC(=O)NC2CCCCC2)cc1 [glibenclamide]
suppression of secretin mediated ionic movement ([3]; 500 μM glibenclamide (CFTR inhibitor)): failed to suppress secretin mediated ionic movement

N=C(N)NC(=O)c1nc(Cl)c(N)nc1N [amiloride]
effect on underlying sodium current ([2]; amiloride, FIG. 7 point a): blocks the underlying sodium current

O=c1ccn([C@@H]2O[C@H](COP(=O)(O)OP(=O)(O)OP(=O)(O)O)[C@@H](O)[C@H]2O)c(=O)[nH]1 [UTP]
ionic movement (short circuit current) [1, 5]: stimulate a similar ionic movement of similar magnitude

O=C(O)c1cc([N+](=O)[O-])ccc1NCCCc1ccccc1 [NPPB, 5-nitro-2-(3-phenylpropyl-amino)benzoic acid]
effect on secretin mediated changes in MQAE fluorescence (Cl- efflux) ([4]; 100 μM NPPB with 100 nM secretin): abolished
